According to ChEMBL document CHEMBL1201862, “PubChem BioAssay data set” (2004):
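Cells were grown in 96-well plates and exposed to each compound for 48 hours at five concentrations; endpoints were interpolated linearly between bracketing concentrations, or set to the highest concentration if not reached. GI50 marks 50% less growth.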 Calls of active or inactive are those of the source. Rule as the data show it: active = GI50 up to about 1.1 µM and inactive = higher.

Assays:
Assay in all cases: inhibition of tumour cell growth, NCI panel, 48 h
SF-539 = test system: SF-539
OVCAR-4 = test system: OVCAR-4
A549 = test system: A549
ACHN = test system: ACHN
T47D = test system: T47D
HCT-15 = test system: HCT-15
EKVX = test system: EKVX
MCF7 = test system: MCF7
HOP-62 = test system: HOP-62
A498 = test system: A498
MDA-MB-231 = test system: MDA-MB-231
RXF 393 = test system: RXF 393
Malme-3M = test system: Malme-3M
NCI-H23 = test system: NCI-H23
NCI-H460 = test system: NCI-H460
HT-29 = test system: HT-29
SF-268 = test system: SF-268
SK-MEL-2 = test system: SK-MEL-2
NCI-H226 = test system: NCI-H226
M14 = test system: M14
HCC 2998 = test system: HCC 2998
OVCAR-3 = test system: OVCAR-3
HOP-92 = test system: HOP-92
MDA-MB-435 = test system: MDA-MB-435
HCT-116 = test system: HCT-116
MDA-N = test system: MDA-N
UACC-257 = test system: UACC-257
KM12 = test system: KM12
RPMI-8226 = test system: RPMI-8226
SK-OV-3 = test system: SK-OV-3
TK-10 = test system: TK-10
SK-MEL-28 = test system: SK-MEL-28
DU-145 = test system: DU-145
HL-60 = test system: HL-60
SNB-75 = test system: SNB-75
PC-3 = test system: PC-3
U-251 = test system: U-251
LOX IMVI = test system: LOX IMVI
OVCAR-8 = test system: OVCAR-8
SNB-19 = test system: SNB-19
786-0 = test system: 786-0
UO-31 = test system: UO-31
MOLT-4 = test system: MOLT-4
OVCAR-5 = test system: OVCAR-5
SK-MEL-5 = test system: SK-MEL-5
K562 = test system: K562
SF-295 = test system: SF-295
Hs-578T = test system: Hs-578T
BT-549 = test system: BT-549
SW-620 = test system: SW-620
IGROV-1 = test system: IGROV-1
COLO 205 = test system: COLO 205
SN12C = test system: SN12C
UACC-62 = test system: UACC-62
NCI-H522 = test system: NCI-H522
CCRF-CEM = test system: CCRF-CEM
CAKI-1 = test system: CAKI-1
NCI/ADR-RES = test system: NCI/ADR-RES

Measured: GI50

CC(=O)O[C@H]1CC[C@@]2(C)C(=CC[C@@H]3[C@@H]2CC[C@]2(C)c4nc(N)c(C#N)cc4C[C@@H]32)C1
2.94 µM: HCT-15
inactive: SF-539 13.7 µM | OVCAR-4 19.9 µM | A549 25.9 µM | ACHN 26.4 µM | T47D 11.4 µM | EKVX 27.9 µM | MCF7 33.6 µM | HOP-62 8.34 µM | A498 > 67.6 µM | MDA-MB-231 44.2 µM | RXF 393 10.7 µM | Malme-3M 41.5 µM | NCI-H23 35 µM | NCI-H460 19.8 µM | HT-29 9.82 µM | SF-268 60.5 µM | SK-MEL-2 35.9 µM | NCI-H226 > 100 µM | M14 > 87.5 µM | HCC 2998 > 55.3 µM | OVCAR-3 1.75 µM | HOP-92 33 µM | MDA-MB-435 33.7 µM | HCT-116 18.2 µM | MDA-N 29 µM | UACC-257 27.2 µM | KM12 55.1 µM | RPMI-8226 5.83 µM | SK-OV-3 38.2 µM | TK-10 27.2 µM | SK-MEL-28 40 µM | DU-145 40.7 µM | HL-60 12.2 µM | SNB-75 7.96 µM | PC-3 42.5 µM | U-251 43.9 µM | LOX IMVI 32.2 µM | OVCAR-8 30.3 µM | SNB-19 > 100 µM | 786-0 28.7 µM | UO-31 > 100 µM | MOLT-4 11.7 µM | OVCAR-5 > 85.3 µM | SK-MEL-5 12.8 µM | K562 15.8 µM | SF-295 35.7 µM | Hs-578T 24.9 µM | BT-549 33.3 µM | SW-620 43.4 µM | IGROV-1 34.3 µM | COLO 205 20.2 µM | SN12C 36.9 µM | UACC-62 40.6 µM | NCI-H522 12.6 µM | CCRF-CEM 14 µM | CAKI-1 > 100 µM

CC(C)(C)OC(=O)NCCC1CNc2ccccc21 (centres undefined)
> 100 µM: HCT-15
inactive: OVCAR-4 > 100 µM | A549 > 100 µM | ACHN > 100 µM | T47D > 100 µM | EKVX > 100 µM | MCF7 > 100 µM | HOP-62 > 100 µM | A498 > 100 µM | MDA-MB-231 > 100 µM | RXF 393 > 100 µM | Malme-3M > 100 µM | NCI-H23 > 100 µM | NCI-H460 > 100 µM | HT-29 > 100 µM | SF-268 > 100 µM | SK-MEL-2 > 100 µM | M14 > 100 µM | HCC 2998 > 100 µM | OVCAR-3 > 100 µM | HOP-92 93.1 µM | MDA-MB-435 > 100 µM | HCT-116 > 100 µM | MDA-N > 100 µM | UACC-257 > 100 µM | KM12 > 100 µM | RPMI-8226 > 100 µM | SK-OV-3 > 100 µM | TK-10 > 100 µM | SK-MEL-28 > 100 µM | DU-145 > 100 µM | SNB-75 > 100 µM | PC-3 > 100 µM | U-251 > 100 µM | OVCAR-8 > 100 µM | SNB-19 > 100 µM | NCI/ADR-RES > 100 µM | 786-0 > 100 µM | UO-31 > 100 µM | MOLT-4 > 100 µM | OVCAR-5 > 100 µM | SK-MEL-5 > 100 µM | K562 > 100 µM | SF-295 > 100 µM | Hs-578T > 100 µM | BT-549 > 100 µM | SW-620 > 100 µM | IGROV-1 > 100 µM | COLO 205 > 100 µM | UACC-62 > 100 µM | NCI-H522 > 100 µM | CAKI-1 > 100 µM
